Laboratory results from patent US8937088B2, “Ureas for the treatment and prevention of cancer” (Astar Biotech LLC, priority 2011, dated 2015).
Like-named read-outs stand apart in the source and are kept apart here.

Columns and labels:
[1] = test system: HUH7 (human hepatoma cell line); assay: Cell death detection, trypan blue exclusion assay, HUH7; format: cell-based; conditions: Huh-7, 168 h, HUH7, 7-day treatment, read-out: Cell Death (%) at Tested Concentration
Method: (§1) Biological Test 2. Cell Death Detection Using Trypan Blue Exclusion Assay.
(§2) After drug treatment, cells were harvested by trypsinization with trypsin/EDTA for 10 min at 37° C. As some apoptotic cells detached from the culture substratum into the medium, these cells were also collected by centrifugation of the medium at 1,200 rpm for 5 min. The pooled cell pellets were resuspended and mixed with trypan blue dye. After Trypan blue stain was done, cells were counted by using a light microscope and a hemocytometer. Blue dye-incorporating cells were scored as being dead. Five hundred cells from randomly chosen fields were counted, and the number of dead cells was counted and expressed as a percentage of the total number of cells counted as shown in Tables 2 to 8 below.

[2] = test system: HepG2 (human Hepatocellular carcinoma cell line); assay: Cell death detection, trypan blue exclusion assay, HepG2; format: cell-based; conditions: HepG2, 5-day treatment
Method: as §1, §2

FLT3 = molecular target: T1, FLT3 (Homo sapiens, UniProt P36888); assay: In vitro kinase assay (Invitrogen SelectScreen Profiling Service), FLT3; format: biochemical; conditions: FLT3, 0.1 μM
T1 sequence (P36888 27-993): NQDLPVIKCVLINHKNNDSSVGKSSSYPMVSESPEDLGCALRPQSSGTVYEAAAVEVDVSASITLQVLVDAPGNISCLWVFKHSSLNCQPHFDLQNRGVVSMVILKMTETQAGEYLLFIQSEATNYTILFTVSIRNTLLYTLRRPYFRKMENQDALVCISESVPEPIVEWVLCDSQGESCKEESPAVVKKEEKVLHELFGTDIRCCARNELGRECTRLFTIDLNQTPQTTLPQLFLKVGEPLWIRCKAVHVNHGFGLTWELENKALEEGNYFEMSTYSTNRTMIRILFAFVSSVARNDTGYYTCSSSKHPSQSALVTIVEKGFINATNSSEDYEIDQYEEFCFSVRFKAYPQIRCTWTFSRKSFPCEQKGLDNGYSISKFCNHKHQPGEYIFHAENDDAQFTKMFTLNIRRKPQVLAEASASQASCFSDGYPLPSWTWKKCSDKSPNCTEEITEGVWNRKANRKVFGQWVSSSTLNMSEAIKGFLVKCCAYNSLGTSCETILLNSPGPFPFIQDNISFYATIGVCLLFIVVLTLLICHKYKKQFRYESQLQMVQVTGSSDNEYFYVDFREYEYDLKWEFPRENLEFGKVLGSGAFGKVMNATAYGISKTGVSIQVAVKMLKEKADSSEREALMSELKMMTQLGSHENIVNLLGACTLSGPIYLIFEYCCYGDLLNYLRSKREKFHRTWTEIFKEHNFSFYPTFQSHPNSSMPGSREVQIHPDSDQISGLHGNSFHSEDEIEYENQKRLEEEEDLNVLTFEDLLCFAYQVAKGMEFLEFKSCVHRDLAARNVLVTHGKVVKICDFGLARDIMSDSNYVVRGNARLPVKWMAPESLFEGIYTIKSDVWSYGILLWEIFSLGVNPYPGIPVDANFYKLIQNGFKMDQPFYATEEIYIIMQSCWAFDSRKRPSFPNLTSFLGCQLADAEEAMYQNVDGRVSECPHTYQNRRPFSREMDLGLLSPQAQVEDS
Method: (§3) Biological Test 1. In Vitro Kinase Assay for BRAF, FLT3 and KDR(VEGFR2) The inhibitory activities of the compounds of the invention were measured by Invitrogen's SelectScreen® Profiling Service.

[3] = test system: patient-derived primary squamous lung 14531 tumor; assay: In vivo activity in SCID mouse model with lung cancer, 30-day treatment; conditions: patient-derived primary squamous lung 14531 tumor in mouse, compared to the control
Excerpt: Biological Test 4. In Vivo Activity in […] SCID Mouse Model with Lung Cancer
Biological Test 5. In Vivo Activity in Senograph SCID Mouse Model with Lung Cancer

KDR(VEGFR2) = KDR(VEGFR2) (Homo sapiens, UniProt P35968); assay: In vitro kinase assay (Invitrogen SelectScreen Profiling Service), KDR; format: biochemical
Sequence of KDR(VEGFR2) (P35968 20-1356): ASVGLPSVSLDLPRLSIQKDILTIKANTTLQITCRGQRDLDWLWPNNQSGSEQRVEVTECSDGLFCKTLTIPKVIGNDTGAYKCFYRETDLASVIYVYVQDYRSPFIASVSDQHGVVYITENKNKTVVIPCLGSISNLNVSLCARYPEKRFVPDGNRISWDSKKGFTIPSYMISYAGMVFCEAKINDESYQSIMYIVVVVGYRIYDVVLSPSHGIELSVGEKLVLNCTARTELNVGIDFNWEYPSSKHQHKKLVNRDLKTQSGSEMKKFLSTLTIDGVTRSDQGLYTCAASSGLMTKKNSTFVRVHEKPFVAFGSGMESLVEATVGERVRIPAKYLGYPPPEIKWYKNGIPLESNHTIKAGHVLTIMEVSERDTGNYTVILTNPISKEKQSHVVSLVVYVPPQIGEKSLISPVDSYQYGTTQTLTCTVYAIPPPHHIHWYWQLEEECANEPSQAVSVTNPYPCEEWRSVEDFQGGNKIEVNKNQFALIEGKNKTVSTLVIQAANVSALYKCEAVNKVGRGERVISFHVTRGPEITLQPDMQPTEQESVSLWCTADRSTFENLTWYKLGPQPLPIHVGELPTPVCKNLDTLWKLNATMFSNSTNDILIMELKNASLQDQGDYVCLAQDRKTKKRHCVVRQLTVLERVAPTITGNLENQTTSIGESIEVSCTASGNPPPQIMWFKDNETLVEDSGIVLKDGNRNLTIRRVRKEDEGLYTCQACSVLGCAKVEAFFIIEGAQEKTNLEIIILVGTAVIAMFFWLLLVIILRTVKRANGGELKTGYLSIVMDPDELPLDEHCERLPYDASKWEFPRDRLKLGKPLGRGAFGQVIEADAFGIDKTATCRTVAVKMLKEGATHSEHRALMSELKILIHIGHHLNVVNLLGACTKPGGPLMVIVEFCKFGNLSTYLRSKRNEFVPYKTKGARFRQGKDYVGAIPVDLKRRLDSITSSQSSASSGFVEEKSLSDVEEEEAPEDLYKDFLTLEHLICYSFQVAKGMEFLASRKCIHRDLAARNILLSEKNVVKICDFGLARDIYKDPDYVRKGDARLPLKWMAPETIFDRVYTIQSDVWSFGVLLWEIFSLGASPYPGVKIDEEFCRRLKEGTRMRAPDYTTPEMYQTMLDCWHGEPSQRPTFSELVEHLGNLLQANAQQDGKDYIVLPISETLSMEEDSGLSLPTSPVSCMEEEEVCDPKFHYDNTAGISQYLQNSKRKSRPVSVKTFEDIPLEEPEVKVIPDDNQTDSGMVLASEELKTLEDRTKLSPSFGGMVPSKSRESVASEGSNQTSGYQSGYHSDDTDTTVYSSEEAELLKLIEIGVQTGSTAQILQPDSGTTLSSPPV
Method: as §3

[4] = test system: HT29 (human colon adenocarcinoma cell line); assay: Cell death detection, trypan blue exclusion assay, HT29; format: cell-based; conditions: HT29, 5-day treatment
Method: as §1, §2

[5] = test system: HUH7 (human hepatoma cell line); assay: Cell death detection, trypan blue exclusion assay, HUH7, in combination with AZD-6244; format: cell-based; conditions: HUH7, 6-day treatment, compound 0.5 μM
Method: as §1, §2

BRAF = BRAF (Homo sapiens, UniProt P15056); assay: In vitro kinase assay (Invitrogen SelectScreen Profiling Service), BRAF; format: biochemical
Sequence of BRAF (P15056 whole entry): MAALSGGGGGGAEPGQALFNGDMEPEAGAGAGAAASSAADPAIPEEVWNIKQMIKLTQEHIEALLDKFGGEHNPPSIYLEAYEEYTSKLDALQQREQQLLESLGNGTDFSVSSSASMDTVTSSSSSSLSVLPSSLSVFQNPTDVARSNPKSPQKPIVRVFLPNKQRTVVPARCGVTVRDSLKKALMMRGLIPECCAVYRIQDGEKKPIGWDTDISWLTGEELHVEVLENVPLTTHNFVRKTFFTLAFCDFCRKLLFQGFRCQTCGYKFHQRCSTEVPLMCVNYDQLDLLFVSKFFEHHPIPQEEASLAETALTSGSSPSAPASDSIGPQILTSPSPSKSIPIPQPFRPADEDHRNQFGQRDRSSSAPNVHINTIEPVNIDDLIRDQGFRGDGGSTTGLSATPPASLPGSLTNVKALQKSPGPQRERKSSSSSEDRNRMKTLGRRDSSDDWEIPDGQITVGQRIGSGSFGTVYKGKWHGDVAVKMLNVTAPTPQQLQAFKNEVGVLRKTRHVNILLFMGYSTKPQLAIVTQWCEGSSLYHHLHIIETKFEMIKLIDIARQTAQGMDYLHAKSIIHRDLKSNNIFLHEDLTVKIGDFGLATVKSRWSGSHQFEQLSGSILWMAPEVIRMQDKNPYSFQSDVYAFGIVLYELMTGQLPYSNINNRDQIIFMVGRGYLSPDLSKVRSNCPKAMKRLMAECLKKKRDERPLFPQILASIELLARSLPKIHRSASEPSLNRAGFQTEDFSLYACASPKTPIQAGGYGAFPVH
Method: as §3

[6] = test system: LNCaP (human prostate adenocarcinoma cell line); assay: Cell death detection, trypan blue exclusion assay, LNCaP; format: cell-based; conditions: read-out: Cell Death (%) at Tested Concentration
Method: as §1, §2

[7] = test system: Hep3B (human hepatoma cell line); assay: Cell death detection, trypan blue exclusion assay, Hep3B; format: cell-based; conditions: 5-day treatment
Method: as §1, §2

CNC(=O)c1cc(Oc2ccc(NC(=O)Nc3ccc(Cl)c(S(F)(F)(F)(F)F)c3)c(F)c2)ccn1 [Example 4, 4-[4-({[4-chloro-3-(pentafluoro-λ^6-sulfanyl)phenyl]carbamoyl}amino)-3-fluorophenoxy]-N-methylpyridine-2-carboxamide]
cytotoxicity at 1 µM ([1]; 1.0 uM): 2.8%
cytotoxicity at 2.5 µM ([1]; 2.5 uM): 3.1%
cytotoxicity at 5 µM ([1]; 5.0 uM): 59.8%
cytotoxicity at 7.5 µM ([1]; 7.5 uM): 91.4%
cytotoxicity at 10 µM ([1]; 10 uM): 93.4%
Cell Death (%) at Tested Concentration ([2]; 0.25 uM): 1.9%
Cell Death (%) at Tested Concentration ([2]; 3.0 uM): 4.5%
Cell Death (%) at Tested Concentration ([2]; 5.0 uM): 27.6%
inhibition at 0.1 µM (FLT3): 51%
effect in reducing the tumor volume [3]: significant effect in reducing the tumor volume
inhibition at 0.1 µM (KDR(VEGFR2)): 36%
Cell Death (%) at Tested Concentration ([4]; 2.5 uM): 11.6%
Cell Death (%) at Tested Concentration ([4]; 5.0 uM): 13.8%
Cell Death (%) at Tested Concentration ([4]; 10 uM): 44.6%
Cell Death (%) in combination with AZD-6244 ([5]; AZD-6244 0 μM): 2.6%
Cell Death (%) in combination with AZD-6244 ([5]; AZD-6244 0.5 μM): 99%
inhibition at 0.1 µM (BRAF): 8%
cytotoxicity at 1 µM ([6]; 72 h, 3-day treatment): 1.8%
cytotoxicity at 2.5 µM ([6]; 72 h, 3-day treatment): 1.4%
cytotoxicity at 5 µM ([6]; 72 h, 3-day treatment): 2.8%
cytotoxicity at 7.5 µM ([6]; 72 h, 3-day treatment): 46.8%
cytotoxicity at 10 µM ([6]; 72 h, 3-day treatment): 94.8%
cytotoxicity at 1 µM ([6]; 168 h, 7-day treatment): 1.4%
cytotoxicity at 2.5 µM ([6]; 168 h, 7-day treatment): 2.7%
cytotoxicity at 5 µM ([6]; 168 h, 7-day treatment): 69.4%
cytotoxicity at 7.5 µM ([6]; 168 h, 7-day treatment): 99%
cytotoxicity at 10 µM ([6]; 168 h, 7-day treatment): 99%
Cell Death (%) at Tested Concentration ([7]; 0.25 uM): 4.6%
Cell Death (%) at Tested Concentration ([7]; 3.0 uM): 67.2%
Cell Death (%) at Tested Concentration ([7]; 5.0 uM): 96.7%
